Values quoted from earlier work, collected in patent publication US20010022980A1, “Dietary supplement for individuals under stress” (Beth Israel Deaconess Medical Center, priority 1998, published 2001).

Tests used:
inflammation = conditions: rats
[1] = soldiers, 24 g in a sports bar
[2] = 20 g per day for five days, 3 g daily for remaining 9 weeks; weight training
[3] = 2 to 5 g per day
PCr = conditions: athletes; about 20 g during exercise
[4] = males and females; 20 g per day
tetanus toxoid = conditions: given during 14 days of training (glutamine 14 g)
explicit memory = conditions: college students; 25 grams; 90 minutes after ingestion

In the case of CCCCC/C=C\C/C=C\C/C=C\CCCCC(=O)O [GLA, γ-linoleic acid], the “cellular phase of inflammation (polymorphonuclear leukocyte accumulation, phagocytosis, and lysosomal enzyme activity)” value (inflammation) is given as “suppressed”.
In the case of CN(CC(=O)O)C(=N)N.O [creatine monohydrate], the “increase in body mass” value [1] is listed as 1.5 kg, the “increase in total repetitions over five sets of bench presses” value [1] is listed as 14.4% and the “reduction of time to complete an obstacle course” value ([1]; not significant) is listed as 7.6 ± 8.2 s. The “decrease in body fat” value ([1]; p <0.05) was 0.6%, the “increase in fat free mass” value [2] was 4.4% and the “increase in intracellular water” value [2] was 3.2%. For the same compound, the “increase in total body water” value [2] was 5% and the “strength (bench press and squat exercises)” value [2] was “significant increase”.
For CN(CC(=O)O)C(=N)N [creatine], the muscle creatine content [3] is given as “increases”, the “resynthesis of PCr after exercise” value (PCr) is given as “rapid resynthesis” and the blood pressure [4] is given as “no change”. The body fat [4] was “no change”, the “lean body mass determined by DEXA” value [4] was “increased” and the plasma creatine kinase [4] was “no change”.
For NC(=O)CC[C@H](N)C(=O)O [glutamine], the “percentage of soldiers who had an induration >10 mm in response to tetanus toxoid” value (tetanus toxoid) is given as 50%.
In the case of NCC(=O)O [glycine, reference compound], the “percentage of soldiers who had an induration >10 mm in response to tetanus toxoid” value (tetanus toxoid) is listed as 30%.
For phosphatidylcholine, the “explicit memory (serial learning task)” value (explicit memory) is given as “improve explicit memory”.
